Source: US20160316790A1, “BETA-HINOKITIOL DERIVATIVES AND APPLICATIONS THEREOF IN PREPARATION OF ANIMAL ANTIBACTERIAL AGENTS AND ANTIBACTERIAL GROWTH PROMOTERS USED IN FEED” (GUANGZHOU INSIGHTER BIOTECHNOLOGY CO., LTD., priority 2013, published 2016)
Converted amounts (≈) assume the structure as drawn. “And” between values parts separate entries of the source, which are not always exact repeats. Equal values may be shown once. Read-outs that look alike come from different tables or passages of the source.

Experiments:
riemerella anatipestifer [1] = experiment: Minimum inhibitory concentration in vitro, doubling dilutions; assay type: cell-based
[2] = tested on: major animal pathogenic bacteria; experiment: In vitro antibacterial activity (MICs), overall statement; assay type: cell-based; conditions: Tables 1 to 4
[3] = Application effect test of β-hinokitiol derivatives in broiler feeds; assay type: in vivo, fast-grown type yellow feather broilers; conditions: 14 days; for Average daily weight gain / Average weight gain / Total consumption / feed conversion efficiency: broilers
Description: 598 fast-grown type yellow feather broilers (female) aged 30-days were divided into five groups according to table 5. […] During the test, the broilers ate food and drank water freely. The test lasted for 14 days. […] [table]

salmonellas = experiment: Minimum inhibitory concentration in vitro, doubling dilutions; assay type: cell-based
clostridium perfringens = experiment: microbe, parasite or virus in culture; assay type: cell-based
escherichia coli = experiment: Minimum inhibitory concentration in vitro, doubling dilutions; assay type: cell-based
streptococcus = experiment: as above; assay type: cell-based
[4] = Effect of β-hinokitiol derivatives on diarrhea of weaned pigs; assay type: in vivo
Description: 80 25-day-old weaned pigs were randomly divided into eight groups according to table 7, 10 pigs in each group. […] During the testing, the pigs ate food and drank water freely with temperature preservation. The test lasted for 10 days.

riemerella anatipestifer [5] = experiment: Protection effect against attacking and infection of riemerella anatipestifer; conditions: ducks, 5 × 10^7 CFU/bird, 7 days
haemophilus parasuis = experiment: Minimum inhibitory concentration in vitro, doubling dilutions; assay type: cell-based; conditions: Glaesserella parasuis
vibrio = experiment: as above; assay type: cell-based
staphylococcus aureus = experiment: as above; assay type: cell-based
[6] = read-out: Minimum inhibitory concentration (MIC), Riemerella anatipestifer SCAU03
[7] = strain FS1303B, read-out: Minimum inhibitory concentration (MIC), Salmonellas FS1303B
[8] = strain GD1303-3, read-out: Minimum inhibitory concentration (MIC), Salmonellas GD1303-3
[9] = read-out: Minimum inhibitory concentration (MIC), Clostridium JM1210B
[10] = read-out: Minimum inhibitory concentration (MIC), Clostridium JM1212A
[11] = read-out: Minimum inhibitory concentration (MIC), Eserichia coli HZ1308-1
[12] = read-out: Minimum inhibitory concentration (MIC), Eserichia coli SS1107A
[13] = strain 2-3A, read-out: Minimum inhibitory concentration (MIC), Haemophilus parasuis 2-3A
[14] = read-out: Minimum inhibitory concentration (MIC), Vibrio VP3
[15] = read-out: Minimum inhibitory concentration (MIC), Vibrio VP5

**Q.** Which MIC (riemerella anatipestifer [1]; [6]) does the source give for `CCCc1cccc(=O)c(O)c1` [IST_009_001, 2-hydroxy-4-propylcyclohepta-2,4,6-trienone] here?
**A.** 12.5 µg/mL (≈ 76.1 µM)

**Q.** And the MIC (riemerella anatipestifer [1]; read-out: Minimum inhibitory concentration (MIC), Riemerella anatipestifer WS)?
**A.** 3.13 µg/mL (≈ 19.1 µM)

**Q.** And the “antibacterial activities compared with the lead compound IST_001_002 (in words)” value [2]?
**A.** better than those of the lead compound IST_001_002

**Q.** What about the “Average daily weight gain” value ([3]; 5 ppm mixed with feed) of the same molecule?
**A.** 37.75 g/d * bird and 36.93 g/d * bird and 33.52 g/d * bird

**Q.** What about the Average weight gain ([3]; 5 ppm mixed with feed) of the same molecule?
**A.** 516.79 g and 520.00 g and 547.21 g

**Q.** What about the Total consumption ([3]; 5 ppm mixed with feed) of the same molecule?
**A.** 61 kg and 58.85 kg and 55.12 kg

**Q.** What about the feed conversion efficiency ([3]; 5 ppm mixed with feed) of the same molecule?
**A.** 2.886 and 2.846 and 2.808

**Q.** And the “Average daily weight gain” value ([3]; 15 ppm mixed with feed)?
**A.** 36.94 g/d * bird and 37.5 g/d * bird and 34.53 g/d * bird

**Q.** What about the Average weight gain ([3]; 15 ppm mixed with feed) of the same molecule?
**A.** 517.17 g and 525.50 g and 523.38 g

**Q.** And the Total consumption ([3]; 15 ppm mixed with feed)?
**A.** 58.03 kg and 57.61 kg and 57.84 kg

**Q.** And the feed conversion efficiency ([3]; 15 ppm mixed with feed)?
**A.** 2.807 and 2.741 and 2.889

**Q.** What about the “weight gain and feed conversion efficiency of the experimental broilers (in words)” value [3] of the same molecule?
**A.** could enhance the weight gain and the feed conversion efficiency

**Q.** And the MIC (salmonellas; [7])?
**A.** 6.25 µg/mL (≈ 38.1 µM)

**Q.** And the MIC (salmonellas; [8])?
**A.** 12.5 µg/mL (≈ 76.1 µM)

**Q.** What about the MIC (clostridium perfringens; [9]) of the same molecule?
**A.** 3.13 µg/mL (≈ 19.1 µM)

**Q.** What about the MIC (clostridium perfringens; [10]) of the same molecule?
**A.** 3.13 µg/mL (≈ 19.1 µM)

**Q.** What about the MIC (escherichia coli; [11]) of the same molecule?
**A.** 12.5 µg/mL (≈ 76.1 µM)

**Q.** And the MIC (escherichia coli; [12])?
**A.** 12.5 µg/mL (≈ 76.1 µM)

**Q.** And the MIC (streptococcus; strain KP1307-1, read-out: Minimum inhibitory concentration (MIC), Streptococcus KP1307-1)?
**A.** 25 µg/mL (≈ 152 µM)

**Q.** And the MIC (streptococcus; strain TS1205-2, read-out: Minimum inhibitory concentration (MIC), Streptococcus TS1205-2)?
**A.** 25 µg/mL (≈ 152 µM)

**Q.** What about the “effect on diarrhea compared with colistin sulfate or IST_001_002 groups (in words)” value ([4]; 30 ppm test group) of the same molecule?
**A.** obviously better than that of colistin sulfate or IST_001_002 groups

**Q.** What about the “Average daily diarrhea rate” value ([4]; weaned pigs, 30 ppm in diet, 10 days) of the same molecule?
**A.** 16% and 17%

**Q.** And the “diarrhea rate of the tested pigs (in words)” value ([4]; weaned pigs, added in feeds, 10 days)?
**A.** could obviously reduce the diarrhea rate

**Q.** And the Death rate (riemerella anatipestifer [5]; 10 mg/kg weight intramuscular)?
**A.** 0%

**Q.** And the Morbidity (riemerella anatipestifer [5]; 10 mg/kg weight intramuscular)?
**A.** 40%

**Q.** And the Death rate (riemerella anatipestifer [5]; 20 mg/kg weight intramuscular)?
**A.** 0%

**Q.** What about the Morbidity (riemerella anatipestifer [5]; 20 mg/kg weight intramuscular) of the same molecule?
**A.** 25%

**Q.** What about the MIC (haemophilus parasuis; read-out: Minimum inhibitory concentration (MIC), Haemophilus parasuis S5A) of the same molecule?
**A.** 0.2 µg/mL (≈ 1.22 µM)

**Q.** What about the MIC (haemophilus parasuis; [13]) of the same molecule?
**A.** 0.39 µg/mL (≈ 2.38 µM)

**Q.** What about the MIC (vibrio; [14]) of the same molecule?
**A.** 12.5 µg/mL (≈ 76.1 µM)

**Q.** And the MIC (vibrio; [15])?
**A.** 6.25 µg/mL (≈ 38.1 µM)

**Q.** And the MIC (staphylococcus aureus; read-out: Minimum inhibitory concentration (MIC), Staphylococcus aureus PNB14)?
**A.** 12.5 µg/mL (≈ 76.1 µM)

**Q.** What about the MIC (staphylococcus aureus; read-out: Minimum inhibitory concentration (MIC), Staphylococcus aureus SA10) of the same molecule?
**A.** 12.5 µg/mL (≈ 76.1 µM)

**Q.** Which MIC (riemerella anatipestifer [1]; [6]) does the source give for `CCCCCc1cccc(=O)c(O)c1` [IST_009_003, 2-hydroxy-4-pentylcyclohepta-2,4,6-trienone] here?
**A.** 12.5 µg/mL (≈ 65 µM)

**Q.** And the MIC (riemerella anatipestifer [1]; strain WS, read-out: Minimum inhibitory concentration (MIC), Riemerella anatipestifer WS)?
**A.** 3.13 µg/mL (≈ 16.3 µM)

**Q.** And the “antibacterial activities compared with the lead compound IST_001_002 (in words)” value [2]?
**A.** better than those of the lead compound IST_001_002

**Q.** What about the “Average daily weight gain” value ([3]; 40 ppm mixed with feed) of the same molecule?
**A.** 36.21 g/d * bird and 34.19 g/d * bird and 37.14 g/d * bird

**Q.** And the Average weight gain ([3]; 40 ppm mixed with feed)?
**A.** 502.05 g and 449.90 g and 534.50 g

**Q.** And the Total consumption ([3]; 40 ppm mixed with feed)?
**A.** 58.05 kg and 57.71 kg and 58.17 kg

**Q.** And the feed conversion efficiency ([3]; 40 ppm mixed with feed)?
**A.** 2.862 and 2.952 and 2.868

**Q.** And the “weight gain and feed conversion efficiency of the experimental broilers (in words)” value [3]?
**A.** could enhance the weight gain and the feed conversion efficiency

**Q.** And the MIC (salmonellas; [7])?
**A.** 6.25 µg/mL (≈ 32.5 µM)

**Q.** What about the MIC (salmonellas; [8]) of the same molecule?
**A.** 12.5 µg/mL (≈ 65 µM)

**Q.** What about the MIC (clostridium perfringens; [9]) of the same molecule?
**A.** 6.25 µg/mL (≈ 32.5 µM)

**Q.** What about the MIC (clostridium perfringens; [10]) of the same molecule?
**A.** 6.25 µg/mL (≈ 32.5 µM)

**Q.** What about the MIC (escherichia coli; [11]) of the same molecule?
**A.** 6.25 µg/mL (≈ 32.5 µM)

**Q.** What about the MIC (escherichia coli; [12]) of the same molecule?
**A.** 12.5 µg/mL (≈ 65 µM)

**Q.** And the MIC (streptococcus; read-out: Minimum inhibitory concentration (MIC), Streptococcus KP1307-1)?
**A.** 12.5 µg/mL (≈ 65 µM)

**Q.** What about the MIC (streptococcus; read-out: Minimum inhibitory concentration (MIC), Streptococcus TS1205-2) of the same molecule?
**A.** 12.5 µg/mL (≈ 65 µM)

**Q.** And the MIC (haemophilus parasuis; [13])?
**A.** 0.2 µg/mL (≈ 1.04 µM)

**Q.** What about the MIC (vibrio; [14]) of the same molecule?
**A.** 50 µg/mL (≈ 260 µM)

**Q.** What about the MIC (vibrio; [15]) of the same molecule?
**A.** 25 µg/mL (≈ 130 µM)
